{"source": "patent US8895051B2", "about": "“Flavoring systems for pharmaceutical compositions and methods of making such compositions” (AbbVie Inc., priority 2000, dated 2014)", "key": {"solubility in water": {"test": "solubility in water", "type": "physicochemical", "conditions": "room temperature and pressure (approximately 25° C. and 1 atmosphere)"}, "[1]": {"test": "solubility in pharmaceutically acceptable solvents and in a co-solvent system", "type": "physicochemical"}}}
{"compound": "Cc1cccc(C)c1OCC(=O)N[C@@H](Cc1ccccc1)[C@@H](O)C[C@H](Cc1ccccc1)NC(=O)[C@H](C(C)C)N1CCCNC1=O", "note": "(relative stereo) [lopinavir, [1S-[1R*,(R*),3R*,4R*]]-N-[4-[[(2,6-dimethylphenoxy)acetyl]amino]-3-hydroxy-5-phenyl-1-(phenylmethyl)pentyl]tetrahydro-alpha-(1-methylethyl)-2-oxo-(2H)-pyrimidine acetamide]", "values": [{"measurement": "solubility in water", "setting": "solubility in water", "value": "practically insoluble"}, {"measurement": "solubility in pharmaceutically acceptable solvents, such as propylene glycol and ethanol", "setting": "[1]; individual solvents, room temperature (about 25° C.)", "value": "adequately soluble"}, {"measurement": "solubility in a co-solvent system", "setting": "[1]; more than one solvent in the solvent system, versus individual solvents", "value": "significantly improved"}]}
